Data: US8192962B2, “Processes for detecting toxic substances” (Daikin Industries, Ltd., priority 2001, dated 2012)

System: Metabolism protein genes
Assay: DNA chip mRNA expression in yeast, metabolism protein genes (Table 7)
Type: cell-based, Saccharomyces cerevisiae S288C
Summary of the method: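 Whole-genome yeast DNA chip hybridization (65° C., >12 h) of Cy-labeled cDNA from S288C cells exposed 2 h at 25° C. to a sub-lethal toxicant dose in YPD; value is intensity relative to chemical-free control.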

Cl[C@H]1[C@H](Cl)[C@@H](Cl)[C@@H](Cl)[C@H](Cl)[C@H]1Cl [(7), γ-hexachlorocyclohexane]
The level of expressed mRNA in the presence of chemical substance/The level of expressed mRNA in the absence of chemical substance (yeast gene YKL035W): 0.6 | level of expressed mRNA in the presence/in the absence of chemical substance (yeast gene YKL060C): 1.2 | The level of expressed mRNA in the presence of chemical substance/The level of expressed mRNA in the absence of chemical substance (yeast gene YKL091C): 1.9 | The level of expressed mRNA in the presence of chemical substance/The level of expressed mRNA in the absence of chemical substance (yeast gene YKL104C): 2.3 | level of expressed mRNA in the presence/in the absence of chemical substance (yeast gene YKL148C): 0.6 | The level of expressed mRNA in the presence of chemical substance/The level of expressed mRNA in the absence of chemical substance (yeast gene YKL152C): 1.5 | level of expressed mRNA in the presence/in the absence of chemical substance (yeast gene YKL157W): 1.9 | The level of expressed mRNA in the presence of chemical substance/The level of expressed mRNA in the absence of chemical substance (yeast gene YKL213C): 1.0 | The level of expressed mRNA in the presence of chemical substance/The level of expressed mRNA in the absence of chemical substance (yeast gene YKL215C): 1.1 | level of expressed mRNA in the presence/in the absence of chemical substance (yeast gene YKR034W): 0.7 | The level of expressed mRNA in the presence of chemical substance/The level of expressed mRNA in the absence of chemical substance (yeast gene YKR039W): 1.0 | The level of expressed mRNA in the presence of chemical substance/The level of expressed mRNA in the absence of chemical substance (yeast gene YLL058W): 1.5 | level of expressed mRNA in the presence/in the absence of chemical substance (yeast gene YLR006C): 1.1 | level of expressed mRNA in the presence/in the absence of chemical substance (yeast gene YLR044C): 1.3 | level of expressed mRNA in the presence/in the absence of chemical substance (yeast gene YLR056W): 0.8 | level of expressed mRNA in the presence/in the absence of chemical substance (yeast gene YLR058C): 0.5 | level of expressed mRNA in the presence/in the absence of chemical substance (yeast gene YLR081W): 0.7 | level of expressed mRNA in the presence/in the absence of chemical substance (yeast gene YLR089C): 1.6 | The level of expressed mRNA in the presence of chemical substance/The level of expressed mRNA in the absence of chemical substance (yeast gene YLR180W): 0.6 | The level of expressed mRNA in the presence of chemical substance/The level of expressed mRNA in the absence of chemical substance (yeast gene YLR273C): 1.2 | level of expressed mRNA in the presence/in the absence of chemical substance (yeast gene YLR284C): 0.8 | The level of expressed mRNA in the presence of chemical substance/The level of expressed mRNA in the absence of chemical substance (yeast gene YLR299W): 0.8 | The level of expressed mRNA in the presence of chemical substance/The level of expressed mRNA in the absence of chemical substance (yeast gene YLR300W): 0.5 | level of expressed mRNA in the presence/in the absence of chemical substance (yeast gene YLR304C): 0.6 | The level of expressed mRNA in the presence of chemical substance/The level of expressed mRNA in the absence of chemical substance (yeast gene YLR307W): 1.5 | The level of expressed mRNA in the presence of chemical substance/The level of expressed mRNA in the absence of chemical substance (yeast gene YLR348C): 0.9 | level of expressed mRNA in the presence/in the absence of chemical substance (yeast gene YLR354C): 1.1 | level of expressed mRNA in the presence/in the absence of chemical substance (yeast gene YLR372W): 0.2 | level of expressed mRNA in the presence/in the absence of chemical substance (yeast gene YML022W): 0.6 | The level of expressed mRNA in the presence of chemical substance/The level of expressed mRNA in the absence of chemical substance (yeast gene YML054C): 1.2 | The level of expressed mRNA in the presence of chemical substance/The level of expressed mRNA in the absence of chemical substance (yeast gene YML070W): 3.1 | The level of expressed mRNA in the presence of chemical substance/The level of expressed mRNA in the absence of chemical substance (yeast gene YML100W): 2.2 | The level of expressed mRNA in the presence of chemical substance/The level of expressed mRNA in the absence of chemical substance (yeast gene YMR008C): 0.9 | level of expressed mRNA in the presence/in the absence of chemical substance (yeast gene YMR011W): 0.8 | level of expressed mRNA in the presence/in the absence of chemical substance (yeast gene YMR015C): 0.4 | The level of expressed mRNA in the presence of chemical substance/The level of expressed mRNA in the absence of chemical substance (yeast gene YMR020W): 2.7 | level of expressed mRNA in the presence/in the absence of chemical substance (yeast gene YMR083W): 1.7 | The level of expressed mRNA in the presence of chemical substance/The level of expressed mRNA in the absence of chemical substance (yeast gene YMR105C): 2.8 | The level of expressed mRNA in the presence of chemical substance/The level of expressed mRNA in the absence of chemical substance (yeast gene YMR189W): 0.8 | level of expressed mRNA in the presence/in the absence of chemical substance (yeast gene YMR205C): 0.9 | level of expressed mRNA in the presence/in the absence of chemical substance (yeast gene YMR261C): 1.3 | The level of expressed mRNA in the presence of chemical substance/The level of expressed mRNA in the absence of chemical substance (yeast gene YMR271C): 3.4 | The level of expressed mRNA in the presence of chemical substance/The level of expressed mRNA in the absence of chemical substance (yeast gene YMR296C): 0.6 | level of expressed mRNA in the presence/in the absence of chemical substance (yeast gene YMR323W): 1.1 | The level of expressed mRNA in the presence of chemical substance/The level of expressed mRNA in the absence of chemical substance (yeast gene YNL012W): 2.0 | level of expressed mRNA in the presence/in the absence of chemical substance (yeast gene YNL025C): 1.2 | The level of expressed mRNA in the presence of chemical substance/The level of expressed mRNA in the absence of chemical substance (yeast gene YNL045W): 1.8 | The level of expressed mRNA in the presence of chemical substance/The level of expressed mRNA in the absence of chemical substance (yeast gene YNL104C): 0.6 | The level of expressed mRNA in the presence of chemical substance/The level of expressed mRNA in the absence of chemical substance (yeast gene YNL106C): 0.9 | The level of expressed mRNA in the presence of chemical substance/The level of expressed mRNA in the absence of chemical substance (yeast gene YNL169C): 0.7 | level of expressed mRNA in the presence/in the absence of chemical substance (yeast gene YNL192W): 1.0 | The level of expressed mRNA in the presence of chemical substance/The level of expressed mRNA in the absence of chemical substance (yeast gene YNL231C): 2.5 | The level of expressed mRNA in the presence of chemical substance/The level of expressed mRNA in the absence of chemical substance (yeast gene YNL322C): 0.9 | The level of expressed mRNA in the presence of chemical substance/The level of expressed mRNA in the absence of chemical substance (yeast gene YNL331C): 1.9 | The level of expressed mRNA in the presence of chemical substance/The level of expressed mRNA in the absence of chemical substance (yeast gene YNL332W): 2.1 | The level of expressed mRNA in the presence of chemical substance/The level of expressed mRNA in the absence of chemical substance (yeast gene YNR019W): 0.8 | The level of expressed mRNA in the presence of chemical substance/The level of expressed mRNA in the absence of chemical substance (yeast gene YNR033W): 1.2 | The level of expressed mRNA in the presence of chemical substance/The level of expressed mRNA in the absence of chemical substance (yeast gene YNR059W): 1.6 | The level of expressed mRNA in the presence of chemical substance/The level of expressed mRNA in the absence of chemical substance (yeast gene YOL058W): 0.4 | level of expressed mRNA in the presence/in the absence of chemical substance (yeast gene YOL086C): 1.9 | level of expressed mRNA in the presence/in the absence of chemical substance (yeast gene YOL108C): 1.1 | level of expressed mRNA in the presence/in the absence of chemical substance (yeast gene YOL116W): 1.5 | The level of expressed mRNA in the presence of chemical substance/The level of expressed mRNA in the absence of chemical substance (yeast gene YOL126C): 1.4 | The level of expressed mRNA in the presence of chemical substance/The level of expressed mRNA in the absence of chemical substance (yeast gene YOL153C): 3.3 | level of expressed mRNA in the presence/in the absence of chemical substance (yeast gene YOL156W): 1.0 | The level of expressed mRNA in the presence of chemical substance/The level of expressed mRNA in the absence of chemical substance (yeast gene YOL165C): 1.4 | level of expressed mRNA in the presence/in the absence of chemical substance (yeast gene YOR002W): 1.0 | level of expressed mRNA in the presence/in the absence of chemical substance (yeast gene YOR085W): 0.6 | The level of expressed mRNA in the presence of chemical substance/The level of expressed mRNA in the absence of chemical substance (yeast gene YOR099W): 1.0 | level of expressed mRNA in the presence/in the absence of chemical substance (yeast gene YOR103C): 1.2 | level of expressed mRNA in the presence/in the absence of chemical substance (yeast gene YOR108W): 1.2 | level of expressed mRNA in the presence/in the absence of chemical substance (yeast gene YOR128C): 0.7 | The level of expressed mRNA in the presence of chemical substance/The level of expressed mRNA in the absence of chemical substance (yeast gene YOR130C): 1.3 | level of expressed mRNA in the presence/in the absence of chemical substance (yeast gene YOR142W): 1.0 | level of expressed mRNA in the presence/in the absence of chemical substance (yeast gene YOR176W): 0.5 | level of expressed mRNA in the presence/in the absence of chemical substance (yeast gene YOR178C): 0.9 | level of expressed mRNA in the presence/in the absence of chemical substance (yeast gene YOR251C): 1.0 | The level of expressed mRNA in the presence of chemical substance/The level of expressed mRNA in the absence of chemical substance (yeast gene YOR336W): 1.2 | The level of expressed mRNA in the presence of chemical substance/The level of expressed mRNA in the absence of chemical substance (yeast gene YOR347C): 0.9 | level of expressed mRNA in the presence/in the absence of chemical substance (yeast gene YOR348C): 0.8 | The level of expressed mRNA in the presence of chemical substance/The level of expressed mRNA in the absence of chemical substance (yeast gene YPL017C): 1.4 | level of expressed mRNA in the presence/in the absence of chemical substance (yeast gene YPL028W): 1.3 | level of expressed mRNA in the presence/in the absence of chemical substance (yeast gene YPL057C): 0.6 | level of expressed mRNA in the presence/in the absence of chemical substance (yeast gene YPL135W): 1.2 | level of expressed mRNA in the presence/in the absence of chemical substance (yeast gene YPL148C): 1.0 | The level of expressed mRNA in the presence of chemical substance/The level of expressed mRNA in the absence of chemical substance (yeast gene YPR026W): 1.3 | level of expressed mRNA in the presence/in the absence of chemical substance (yeast gene YPR113W): 1.2 | level of expressed mRNA in the presence/in the absence of chemical substance (yeast gene YPR165W): 1.0 | The level of expressed mRNA in the presence of chemical substance/The level of expressed mRNA in the absence of chemical substance (yeast gene YPR167C): 1.2 | level of expressed mRNA in the presence/in the absence of chemical substance (yeast gene YPR183W): 1.2
